In the NIST ThermoML archive (doi:10.1021/je0497247):

Conditions: 100 kPa, Liquid; for viscosity: Capillary tube (Ostwald / Ubbelohde) method; for mass density: Pycnometric method

O=C(O)c1ccccc1 [benzoic acid]
Conditions	mass density [kg/m3]	thermal conductivity [W/m/K]	viscosity [mPa·s]
400.3 K	–	–	1.372
401.3 K	1089.5	–	–
406.8 K	–	0.139	–
409.3 K	–	–	1.238
410.3 K	1080.2	–	–
418.3 K	–	–	1.117
419.3 K	1069.8	–	–
424.4 K	–	0.137	–
427.2 K	–	–	1.026
428.2 K	1060.2	–	–
432.1 K	1055	–	0.953
444.9 K	–	0.134	–
447.1 K	1036	–	0.802
465.1 K	–	0.132	–
